Measurements from patent US20260235581A1, “METHOD FOR THE SELECTION OF AN ECOBIOLOGICAL COMPOUND CAPABLE OF INCREASING THE SKIN TOLERANCE THRESHOLD” (NAOS INSTITUTE OF LIFE SCIENCE, priority 2023, published 2026).

Columns and labels:
TAFA4 = TAFA4 synthesis in normal human fibroblast culture supernatant, dot blot; assay type: cell-based; conditions: for effect on the synthesis of TAFA4 (modulation of TAFA4 in the NHF supernatant): 72 hours of incubation, versus DMEM medium control set to 100%, valproic acid 0.025% and 0.05%, TGF-β 10 and 100 ng/ml, LPS 1 μg/ml; for doses with statistically significant induction of TAFA4 synthesis: NHF supernatant, 72 hours, Student test p<0.05, two doses tested
Experimental: Normal human fibroblasts (NHFs) have been used in this study (Lonza-Switzerland). The cells are seeded at 10,000 cells in 24-well plates in DMEM+1% Penicillin-streptomycin (P/S). After 72 hours of incubation at 37° C., 5% CO2, the supernatants and protein extracts (obtained from the cell layer) are recovered and stored at −80° C. Before assaying the TAFA4 protein, an evaluation of the toxicity of the compounds tested is performed using the MTT test. Only the concentrations which make it possible to obtain a viability greater than 80% are selected to be quantified by ELISA and dot blot. Dot blotting is an immunoenzymatic detection method for quantifying a protein in a sample after it has been deposited on a nitro-cellulose membrane in a well. Specific equipment (Biorad, France) is used with a nitrocellulose membrane. The device is subjected to a vacuum pressure which will make it possible to create the suctioning of the sample (supernatant or protein extract) and therefore, the binding of proteins to the nitrocellulose membrane. The equipment is placed at a height with respect to the vacuum pump, to respect the principle of gravity. The membrane is previously hydrated with 100 μl of TBS buffer (Tris base+NaCl diluted in water adjusted to pH 7.5) per well. This operation is repeated twice in order to optimise the hydration of the membrane for optimal binding of the proteins contained in the samples. The samples to be analysed (supernatants and protein extracts) and the different solutions of TAFA4 recombinant proteins at different concentrations of the TAFA4 standard range (0.78 to 100 ng/ml) are deposited in the plate (volume 100 μl/well used for the protein extracts and 500 μl/well-used for the supernatants) then the suction flow is activated. […] The presence of the TAFA4 protein on the membrane is conveyed by the formation of a grey to black spot depending on the intensity of the reaction and therefore on the quantity of protein. The membrane is read with the Fusion FX device (Vilber Lourmat) coupled with the VisionCapt software (Vilber Lourmat). The quantification of the TAFA4 protein in the samples tested is done with the VisionCapt software which makes it possible to measure the intensity of the various spots. The quantity of samples is then produced using the standard curve of the TAFA4 standard established with the recombinant protein The data have been collected from independent experiments performed in triplicate. Quantitative analyses are expressed in the form of mean±standard deviation. Statistical significance is determined by a Student test. […] The results are expressed as a percentage of TAFA4 expression by standardising the control to 100% (DMEM medium control). […]

KO mice for TAFA4 [1] = conditions: intradural injection; inflammatory pain agonist or partial lesion of the sciatic nerve; cited from earlier work
[2] = system: pain/hypersensitivity felt locally in the skin; conditions: mice, injection subcutaneously or at the level of the neurons present in the bone marrow; cited from earlier work
KO mice for TAFA4 [3] = conditions: UVC irradiation, intradermal injection post-irradiation; cited from earlier work

Compound | effect on the synthesis of TAFA4 (modulation of TAFA4 in the NHF supernatant) (TAFA4) | doses with statistically significant induction of TAFA4 synthesis (TAFA4) | effect on increased hypersensitivity to pain of TAFA4 KO mice (KO mice for TAFA4 [1]) | duration of the reduction of pain/hypersensitivity post-injection [2] | effect on pain/hypersensitivity felt locally in the skin [2] | effect on 35-day post-irradiation inflammation resolution defect (KO mice for TAFA4 [3])
CCCC(CCC)C(=O)O [Valproic acid, reference compound] | induce the synthesis of TAFA4 in a dose-dependent manner | 1 out of 2 doses |  |  |  | 
TGF-β: TGF-β protein, 100-21, PEPROTECH | induce the synthesis of TAFA4 in a dose-dependent manner | 2 out of 2 doses |  |  |  | 
human TAFA4 protein: TAFA Chemokine Like Family Member 4 protein, a neurokine; injected recombinant protein in literature mouse studies |  |  | compensates for the condition of TAFA4 KO mice | up to 4 hours | reduces the pain/hypersensitivity felt locally in the skin | can be compensated
